In patent US10266537B2, “3-acetylenyl-pyrazole-pyrimidine derivative, and preparation method therefor and uses thereof” (Si Chuan University, priority 2015, dated 2019):
pIC50: −log10 of the molar value. Each block holds one compound with its values, some of them ahead of it.

Experiments:
[1] = test system: transgenic FLK1-GFP fluorescent zebrafish; assay: Anti-angiogenesis activity in transgenic zebrafish; assay type: in vivo; details: FLK1 transgenic zebrafish embryos; 10, 5 and 2.5 μg/mL; compared with the control group
Description: Angiogenesis inhibitory activity of the test compound is represented by the extent of inhibition vascular section between zebrafish with concentrations of 10 μg/mL, 5 μg/mL and 2.5 μg/mL. The positive control is Dasatinib, a drug in breast cancer clinical trials.
Zebrafish Embryo Access: The zebrafish used in this experiment is a vascular fluorescence transgenic zebrafish (FLK1: GFP). The breeding and breeding of zebrafish is based on Westerfield's method. In the day before egg collection, the male and female zebrafish were paired by the ratio 1:1 a. The next day, they natural mating and spawning at a temperature of about 28° C. and sufficient light. Sufficient zebrafish embryos were collected, washed and placed in embryonic culture medium and placed in a 28° C. incubator. The use of morphological and development criteria to identify survival at any time, dead embryos were white, should be promptly removed to prevent water quality deterioration. […]
Results observed: After zebrafish embryos fertilized 31 h, stripped shell eggs. The embryos were then placed on slides and fixed with 1.5% methylcellulose containing 1‰ of triacaine, followed by observing the count of Inter segmental vessels (ISVs) under fluorescence microscopy.

PC-3 = assay: Cell proliferation inhibition assay (MTT); assay type: cell-based; details: Homo sapiens, 72 hours, read-out: Proliferation inhibitory activity IC50
ACK1 = ACK1 (Homo sapiens (Human), UniProt Q07912); assay: Kinase inhibition assay (KinaseProfiler, 33P-ATP); assay type: biochemical; details: ACK1(h), read-out: The percentage of the remaining active protein
Rsk1(h) = Rsk1(h) (Homo sapiens (Human), UniProt Q15418); assay: Kinase inhibition assay (KinaseProfiler, 33P-ATP); assay type: biochemical; details: read-out: The percentage of the remaining active protein
CK1γ1(h) = CK1γ1(h) (Homo sapiens (Human), UniProt Q9HCP0); assay: Kinase inhibition assay (KinaseProfiler, 33P-ATP); assay type: biochemical; details: read-out: The percentage of the remaining active protein
Chain of CK1γ1(h) (Q9HCP0 whole entry): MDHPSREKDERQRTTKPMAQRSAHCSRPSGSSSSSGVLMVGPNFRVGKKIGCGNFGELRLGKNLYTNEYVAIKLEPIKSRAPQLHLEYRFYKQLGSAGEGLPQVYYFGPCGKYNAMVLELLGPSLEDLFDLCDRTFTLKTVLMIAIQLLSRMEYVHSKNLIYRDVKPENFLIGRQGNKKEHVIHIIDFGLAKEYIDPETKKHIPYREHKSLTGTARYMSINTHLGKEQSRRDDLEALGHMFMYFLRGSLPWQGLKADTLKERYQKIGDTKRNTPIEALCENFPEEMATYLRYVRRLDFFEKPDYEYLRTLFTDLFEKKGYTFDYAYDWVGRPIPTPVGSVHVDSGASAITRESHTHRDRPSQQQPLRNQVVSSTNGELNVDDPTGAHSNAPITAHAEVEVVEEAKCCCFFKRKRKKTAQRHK

TrkB = TrkB (Homo sapiens (Human), UniProt Q16620); assay: Kinase inhibition assay (KinaseProfiler, 33P-ATP); assay type: biochemical; details: TrkB(h), read-out: The percentage of the remaining active protein
Lck = Lck (Homo sapiens (Human), UniProt P06239); assay: Kinase inhibition assay (KinaseProfiler, 33P-ATP); assay type: biochemical
Chain of Lck (P06239 whole entry): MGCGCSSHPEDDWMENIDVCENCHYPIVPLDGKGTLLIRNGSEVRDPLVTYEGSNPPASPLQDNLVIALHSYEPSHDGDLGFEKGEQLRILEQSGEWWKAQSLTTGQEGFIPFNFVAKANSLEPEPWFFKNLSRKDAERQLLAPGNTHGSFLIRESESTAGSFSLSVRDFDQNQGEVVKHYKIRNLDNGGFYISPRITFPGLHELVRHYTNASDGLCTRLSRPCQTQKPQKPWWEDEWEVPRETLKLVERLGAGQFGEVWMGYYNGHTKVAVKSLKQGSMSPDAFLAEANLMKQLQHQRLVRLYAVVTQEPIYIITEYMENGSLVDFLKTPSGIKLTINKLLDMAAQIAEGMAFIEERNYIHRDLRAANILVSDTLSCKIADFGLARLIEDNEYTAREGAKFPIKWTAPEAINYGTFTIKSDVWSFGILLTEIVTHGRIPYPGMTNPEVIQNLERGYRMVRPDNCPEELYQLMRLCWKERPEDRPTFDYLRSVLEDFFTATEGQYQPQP

DCAMKL2(h) = DCAMKL2(h) (Homo sapiens (Human), UniProt Q8N568); assay: Kinase inhibition assay (KinaseProfiler, 33P-ATP); assay type: biochemical; details: read-out: The percentage of the remaining active protein
Arg(m) = Arg(m) (Mus musculus (Mouse), UniProt Q4JIM5); assay: Kinase inhibition assay (KinaseProfiler, 33P-ATP); assay type: biochemical; details: read-out: The percentage of the remaining active protein
IR(h), activated = IR(h), activated (Homo sapiens (Human), UniProt P06213); assay: Kinase inhibition assay (KinaseProfiler, 33P-ATP); assay type: biochemical; details: read-out: The percentage of the remaining active protein
LRRK2(h) = LRRK2(h) (Homo sapiens (Human), UniProt Q5S007); assay: Kinase inhibition assay (KinaseProfiler, 33P-ATP); assay type: biochemical; details: read-out: The percentage of the remaining active protein
PAK5(h) = PAK5(h) (Homo sapiens (Human), UniProt Q9P286); assay: Kinase inhibition assay (KinaseProfiler, 33P-ATP); assay type: biochemical; details: read-out: The percentage of the remaining active protein
NLK(h) = NLK(h) (Homo sapiens (Human), UniProt Q9UBE8); assay: Kinase inhibition assay (KinaseProfiler, 33P-ATP); assay type: biochemical; details: read-out: The percentage of the remaining active protein
MKK7β(h) = MKK7β(h) (Homo sapiens (Human), UniProt O14733); assay: Kinase inhibition assay (KinaseProfiler, 33P-ATP); assay type: biochemical; details: read-out: The percentage of the remaining active protein
MRCKβ(h) = MRCKβ(h) (Homo sapiens (Human), UniProt Q9Y5S2); assay: Kinase inhibition assay (KinaseProfiler, 33P-ATP); assay type: biochemical; details: read-out: The percentage of the remaining active protein
cKit (V560G) = cKit (V560G) (Homo sapiens (Human), UniProt P10721, V560G); assay: Kinase inhibition assay (KinaseProfiler, 33P-ATP); assay type: biochemical; details: cKit(V560G)(h), read-out: The percentage of the remaining active protein
Fes(h) = Fes(h) (Homo sapiens (Human), UniProt P07332); assay: Kinase inhibition assay (KinaseProfiler, 33P-ATP); assay type: biochemical; details: read-out: The percentage of the remaining active protein
Chain of Fes(h) (P07332 whole entry): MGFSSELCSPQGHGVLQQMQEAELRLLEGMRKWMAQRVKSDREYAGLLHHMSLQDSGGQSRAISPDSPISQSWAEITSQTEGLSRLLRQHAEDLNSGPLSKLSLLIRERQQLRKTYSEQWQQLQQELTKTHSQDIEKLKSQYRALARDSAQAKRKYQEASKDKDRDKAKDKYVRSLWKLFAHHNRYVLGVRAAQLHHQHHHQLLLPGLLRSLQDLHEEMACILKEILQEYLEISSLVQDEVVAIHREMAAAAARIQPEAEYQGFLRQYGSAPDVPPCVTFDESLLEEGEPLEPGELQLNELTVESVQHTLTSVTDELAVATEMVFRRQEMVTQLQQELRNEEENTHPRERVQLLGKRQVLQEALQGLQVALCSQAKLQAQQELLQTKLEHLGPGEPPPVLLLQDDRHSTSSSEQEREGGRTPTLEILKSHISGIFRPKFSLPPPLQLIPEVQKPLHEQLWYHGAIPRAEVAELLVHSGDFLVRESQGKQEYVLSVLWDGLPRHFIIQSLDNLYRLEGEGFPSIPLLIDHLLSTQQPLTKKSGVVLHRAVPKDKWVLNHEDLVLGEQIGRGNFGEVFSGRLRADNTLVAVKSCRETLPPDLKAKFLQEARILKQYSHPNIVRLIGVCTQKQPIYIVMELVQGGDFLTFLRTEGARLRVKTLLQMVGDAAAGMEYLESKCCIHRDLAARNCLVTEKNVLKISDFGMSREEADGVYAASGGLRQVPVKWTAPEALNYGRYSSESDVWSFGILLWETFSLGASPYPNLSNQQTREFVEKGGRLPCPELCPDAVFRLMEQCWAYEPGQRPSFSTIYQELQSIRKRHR

PDK1(h) = PDK1(h) (Homo sapiens (Human), UniProt O15530); assay: Kinase inhibition assay (KinaseProfiler, 33P-ATP); assay type: biochemical; details: read-out: The percentage of the remaining active protein
Abl(m) = Abl(m) (Mus musculus (Mouse), UniProt P00520); assay: Kinase inhibition assay (KinaseProfiler, 33P-ATP); assay type: biochemical; details: read-out: The percentage of the remaining active protein
Arg = Arg (Homo sapiens, UniProt P42684); assay: Kinase inhibition assay (KinaseProfiler, 33P-ATP)
Chain of Arg (P42684 2-1182 limits assumed): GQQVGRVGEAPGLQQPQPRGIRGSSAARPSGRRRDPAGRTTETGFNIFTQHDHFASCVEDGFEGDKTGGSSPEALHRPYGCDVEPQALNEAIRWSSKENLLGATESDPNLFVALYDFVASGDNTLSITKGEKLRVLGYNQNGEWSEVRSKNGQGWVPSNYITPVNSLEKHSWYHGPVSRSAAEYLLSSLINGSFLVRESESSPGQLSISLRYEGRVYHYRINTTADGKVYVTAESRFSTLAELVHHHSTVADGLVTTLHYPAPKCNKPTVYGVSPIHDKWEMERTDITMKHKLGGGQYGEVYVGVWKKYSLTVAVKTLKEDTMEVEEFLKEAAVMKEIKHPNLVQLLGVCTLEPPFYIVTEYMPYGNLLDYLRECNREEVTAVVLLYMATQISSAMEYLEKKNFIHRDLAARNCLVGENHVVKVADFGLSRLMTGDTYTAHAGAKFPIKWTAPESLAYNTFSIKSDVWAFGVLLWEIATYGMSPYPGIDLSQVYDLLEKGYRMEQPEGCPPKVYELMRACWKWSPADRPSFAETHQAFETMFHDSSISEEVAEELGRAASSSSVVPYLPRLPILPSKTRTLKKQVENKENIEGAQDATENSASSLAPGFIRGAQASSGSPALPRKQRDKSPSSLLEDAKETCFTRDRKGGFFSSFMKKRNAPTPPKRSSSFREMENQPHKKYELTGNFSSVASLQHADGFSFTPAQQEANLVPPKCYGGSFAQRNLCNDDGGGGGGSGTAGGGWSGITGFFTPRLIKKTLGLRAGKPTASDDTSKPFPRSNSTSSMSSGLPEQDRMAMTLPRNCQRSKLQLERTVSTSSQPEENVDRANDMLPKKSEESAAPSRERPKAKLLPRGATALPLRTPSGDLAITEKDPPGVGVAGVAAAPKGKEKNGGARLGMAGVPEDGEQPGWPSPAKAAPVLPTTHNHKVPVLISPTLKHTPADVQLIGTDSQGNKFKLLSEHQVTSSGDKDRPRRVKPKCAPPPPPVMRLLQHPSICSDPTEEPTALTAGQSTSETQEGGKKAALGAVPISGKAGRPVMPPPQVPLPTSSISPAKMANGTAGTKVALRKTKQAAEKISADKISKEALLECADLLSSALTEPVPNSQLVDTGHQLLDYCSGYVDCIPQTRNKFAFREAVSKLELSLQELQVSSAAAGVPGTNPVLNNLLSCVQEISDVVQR

ULK2(h) = ULK2(h) (Homo sapiens (Human), UniProt Q8IYT8); assay: Kinase inhibition assay (KinaseProfiler, 33P-ATP); assay type: biochemical; details: read-out: The percentage of the remaining active protein
HIPK3(h) = HIPK3(h) (Homo sapiens (Human), UniProt Q9H422); assay: Kinase inhibition assay (KinaseProfiler, 33P-ATP); assay type: biochemical; details: read-out: The percentage of the remaining active protein
[2] = molecular target: PI3 Kinase (p110b/p85b)(m) (Mus musculus (Mouse), UniProt Q8BTI9); assay: Kinase inhibition assay (KinaseProfiler, 33P-ATP); assay type: biochemical; details: read-out: The percentage of the remaining active protein
MSK1(h) = MSK1(h) (Homo sapiens (Human), UniProt O75582); assay: Kinase inhibition assay (KinaseProfiler, 33P-ATP); assay type: biochemical; details: read-out: The percentage of the remaining active protein
ATR/ATRIP(h) = ATR/ATRIP(h) (Homo sapiens (Human), UniProt Q13535); assay: Kinase inhibition assay (KinaseProfiler, 33P-ATP); assay type: biochemical; details: read-out: The percentage of the remaining active protein
NIM1(h) = NIM1(h) (Homo sapiens (Human), UniProt Q8IY84); assay: Kinase inhibition assay (KinaseProfiler, 33P-ATP); assay type: biochemical; details: read-out: The percentage of the remaining active protein
CK1δ(h) = CK1δ(h) (Homo sapiens (Human), UniProt P48730); assay: Kinase inhibition assay (KinaseProfiler, 33P-ATP); assay type: biochemical; details: read-out: The percentage of the remaining active protein
Chain of CK1δ(h) (P48730 whole entry): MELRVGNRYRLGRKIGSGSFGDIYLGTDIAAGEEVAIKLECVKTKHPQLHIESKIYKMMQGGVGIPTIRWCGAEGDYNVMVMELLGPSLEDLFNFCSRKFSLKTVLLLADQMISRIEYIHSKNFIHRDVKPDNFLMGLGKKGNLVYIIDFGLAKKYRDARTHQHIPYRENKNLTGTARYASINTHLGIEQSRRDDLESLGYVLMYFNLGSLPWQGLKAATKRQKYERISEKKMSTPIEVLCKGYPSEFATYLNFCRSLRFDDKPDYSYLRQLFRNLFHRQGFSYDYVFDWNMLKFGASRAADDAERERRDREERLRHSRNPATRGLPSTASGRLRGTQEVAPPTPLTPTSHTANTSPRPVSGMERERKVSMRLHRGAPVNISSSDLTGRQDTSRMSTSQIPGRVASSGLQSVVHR

PI3KC2a(h) = PI3KC2a(h) (Homo sapiens (Human), UniProt O00443); assay: Kinase inhibition assay (KinaseProfiler, 33P-ATP); assay type: biochemical; details: read-out: The percentage of the remaining active protein
Chain of PI3KC2a(h) (O00443 whole entry): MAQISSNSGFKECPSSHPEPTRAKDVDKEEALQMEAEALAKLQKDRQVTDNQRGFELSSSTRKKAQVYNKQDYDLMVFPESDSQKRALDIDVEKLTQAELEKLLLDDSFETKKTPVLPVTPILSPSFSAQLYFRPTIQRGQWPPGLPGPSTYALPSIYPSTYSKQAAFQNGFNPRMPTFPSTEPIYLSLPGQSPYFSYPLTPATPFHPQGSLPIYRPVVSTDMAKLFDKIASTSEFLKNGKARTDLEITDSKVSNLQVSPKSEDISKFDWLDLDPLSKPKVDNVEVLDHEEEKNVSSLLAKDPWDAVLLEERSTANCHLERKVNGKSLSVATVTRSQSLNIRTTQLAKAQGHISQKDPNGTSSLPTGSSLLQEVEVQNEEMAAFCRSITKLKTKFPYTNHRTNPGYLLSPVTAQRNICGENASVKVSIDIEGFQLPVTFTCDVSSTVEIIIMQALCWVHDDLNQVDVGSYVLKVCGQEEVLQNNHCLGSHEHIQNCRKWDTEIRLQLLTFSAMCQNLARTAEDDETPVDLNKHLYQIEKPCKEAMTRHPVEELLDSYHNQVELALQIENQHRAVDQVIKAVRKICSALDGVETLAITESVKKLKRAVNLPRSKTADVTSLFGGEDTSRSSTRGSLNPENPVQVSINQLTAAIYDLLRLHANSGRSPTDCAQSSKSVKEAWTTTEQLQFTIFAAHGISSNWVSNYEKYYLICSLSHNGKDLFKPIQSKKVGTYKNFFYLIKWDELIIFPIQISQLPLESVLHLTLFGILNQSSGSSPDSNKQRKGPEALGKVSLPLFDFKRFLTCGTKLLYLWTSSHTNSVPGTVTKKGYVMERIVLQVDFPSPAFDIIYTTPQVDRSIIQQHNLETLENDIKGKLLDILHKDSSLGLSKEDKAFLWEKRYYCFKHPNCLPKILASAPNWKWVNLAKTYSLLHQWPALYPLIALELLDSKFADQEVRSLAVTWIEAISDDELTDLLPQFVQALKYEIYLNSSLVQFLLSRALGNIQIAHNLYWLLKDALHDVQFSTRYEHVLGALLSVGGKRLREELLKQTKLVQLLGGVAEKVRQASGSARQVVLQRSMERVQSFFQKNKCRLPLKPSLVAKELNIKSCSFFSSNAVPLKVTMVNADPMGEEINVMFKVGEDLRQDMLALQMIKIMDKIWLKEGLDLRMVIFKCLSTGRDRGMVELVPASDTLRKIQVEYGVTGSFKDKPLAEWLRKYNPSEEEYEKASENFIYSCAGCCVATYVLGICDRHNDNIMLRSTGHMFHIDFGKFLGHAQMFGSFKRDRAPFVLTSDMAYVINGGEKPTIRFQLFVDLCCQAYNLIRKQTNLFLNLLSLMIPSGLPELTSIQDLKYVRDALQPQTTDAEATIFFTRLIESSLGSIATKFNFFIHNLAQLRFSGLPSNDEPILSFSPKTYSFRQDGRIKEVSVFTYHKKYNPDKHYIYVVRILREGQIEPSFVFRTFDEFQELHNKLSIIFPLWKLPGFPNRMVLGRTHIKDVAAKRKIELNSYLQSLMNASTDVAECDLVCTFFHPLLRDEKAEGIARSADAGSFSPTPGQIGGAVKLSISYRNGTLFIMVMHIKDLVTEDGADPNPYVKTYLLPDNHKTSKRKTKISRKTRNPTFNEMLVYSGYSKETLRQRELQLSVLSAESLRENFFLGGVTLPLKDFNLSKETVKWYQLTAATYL

[3] = molecular target: PI3 Kinase (p110a/p65a)(h) (Homo sapiens (Human), UniProt P42336); assay: Kinase inhibition assay (KinaseProfiler, 33P-ATP); assay type: biochemical; details: read-out: The percentage of the remaining active protein

pIC50 (PC-3): 5.40
SMILES: Cc1ccc(NC(=O)c2cccc(C(F)(F)F)c2)cc1C#Cc1nn(C2CCN(C)CC2)c2ncnc(N)c12 [Compound 31]
inhibition of angiogenesis (inter segmental vessels) [1]: inhibit the angiogenesis of zebrafish significantly

remaining activity at 10 µM (ACK1): 4%
remaining activity at 10 µM (Rsk1(h)): 11%
remaining activity at 10 µM (CK1γ1(h)): 83%
remaining activity at 10 µM (TrkB): 4%
remaining activity at 10 µM (Lck; Lck(h), 10 μM, read-out: The percentage of the remaining active protein): 0%
pIC50 (Lck; Lck, ATP at Km): 7.85
remaining activity at 10 µM (DCAMKL2(h)): 102%
remaining activity at 10 µM (Arg(m)): -1%
remaining activity at 10 µM (IR(h), activated): 89%
remaining activity at 10 µM (LRRK2(h)): 15%
remaining activity at 10 µM (PAK5(h)): 89%
remaining activity at 10 µM (NLK(h)): 82%
remaining activity at 10 µM (MKK7β(h)): 70%
remaining activity at 10 µM (MRCKβ(h)): 87%
remaining activity at 10 µM (cKit (V560G)): 0%
remaining activity at 10 µM (Fes(h)): 34%
remaining activity at 10 µM (PDK1(h)): 113%
remaining activity at 10 µM (Abl(m)): -2%
pIC50 (Arg; Arg, ATP at Km): 8.40
remaining activity at 10 µM (Arg; read-out: The percentage of the remaining active protein): 0%
remaining activity at 10 µM (ULK2(h)): 100%
remaining activity at 10 µM (HIPK3(h)): 81%
remaining activity at 10 µM [2]: 93%
remaining activity at 10 µM (MSK1(h)): 95%
remaining activity at 10 µM (ATR/ATRIP(h)): 94%
remaining activity at 10 µM (NIM1(h)): 131%
remaining activity at 10 µM (CK1δ(h)): 88%
remaining activity at 10 µM (PI3KC2a(h)): 92%
remaining activity at 10 µM [3]: 92%
SMILES: Cc1ccc(NC(=O)c2ccc(C)c(C(F)(F)F)c2)cc1C#Cc1nn([C@H]2CC[C@H](O)CC2)c2ncnc(N)c12 [Compound 93]
